Test systems include Escherichia coli 780; Staphylococcus aureus 75; Escherichia coli 804; Bacillus cereus DSM 4222; Bacillus cereus DSM 4312; Listeria monocytogenes; Pseudomonas aeruginosa.
Common to all, as to test: ≥ marks a high value that may be exact or a test limit, other limits are often not marked, values filed in µg/mL are converted to µM
For test [1], the system named is Pseudomonas aeruginosa 50.
In test [2] the test system is Acinetobacter baumannii 9931.
For test [3], the system named is Pseudomonas aeruginosa ATCC 27853.
Test [4] relates to Klebsiella pneumoniae ATCC 700603.
Test [5] deals with Bacillus subtilis ATCC 23857.
The test system of test [6] is Pseudomonas aeruginosa 73.
The test system of test [7] is Staphylococcus epidermidis ATCC 12228.
Test [8] relates to Pseudomonas aeruginosa ATCC 9027.
Test [9] deals with Staphylococcus aureus 113.
For test [10], the system named is Acinetobacter baumannii ATCC 19606.
Test [11] has as its system Staphylococcus aureus ATCC 29213.
Test [12] concerns Acinetobacter baumannii 97830.
Test [13] concerns Clostridium perfringens ATCC 13124.
In test [14] the test system is Escherichia coli ATCC 35150.
For test [15], the system named is Staphylococcus aureus DSM 2569.
The subject of test [16] is Escherichia coli NEB5alpha.
In test [17] the test system is Escherichia coli NCTC 13452.
Test [18] deals with Pseudomonas putida DSM 291.
Test [19] deals with Staphylococcus aureus ATCC 3300.
For test [20], the system named is Clostridium perfringens DSM 11784.
Test [21] deals with Listeria monocytogenes SLCC 5581.
For test [22], the system named is Pseudomonas fluorescens DSM 50124.
The test system of test [23] is Salmonella typhimurium DSM 19587.
Test [24] has as its system Salmonella enterica subsp. enterica serovar Typhimurium DSM 554.
Test [25] concerns Bacillus subtilis ATCC 6051.
In test [26] the test system is Acinetobacter baumannii b-01.
Test [27] deals with Acinetobacter baumannii b-02.
Test [28] has as its system Acinetobacter baumannii b-04.
Test [29] has as its system Acinetobacter baumannii b-03.
Test [30] has as its system Escherichia coli ATCC 25922.
Test [31] has as its system Staphylococcus aureus FDA 209P.

In brackets after ≈: the same amount, converted by molar mass.

One may read the MIC as the lowest concentration that inhibits growth of the organism. Higher therefore signals a less susceptible organism.

As to `NCC(=O)N[C@@H](CCCN=C(N)N)C(=O)N[C@@H](CCCN=C(N)N)C(=O)N[C@@H](Cc1c[nH]c2ccccc12)C(=O)N[C@@H](Cc1c[nH]c2ccccc12)C(=O)N[C@@H](Cc1c[nH]c2ccccc12)C(=O)N[C@@H](CCCN=C(N)N)C(=O)N[C@@H](CCCN=C(N)N)C(=O)NCC(N)=O` [GRRWWWRRG], the MIC in test [1] was at least 128 µM; in test [2], at least 64 µM; in [3], above 128 µM; with Escherichia coli 780, at least 32 µM; in test [4] it was 128 µM (≈ 168 µg/mL); in test [5], 4 µM (≈ 5.26 µg/mL). Further, the MIC in test [6] was at least 128 µM; in [7] it was 4 µM (≈ 5.26 µg/mL); in [8], 128 µM (≈ 168 µg/mL); in [9] it was 8 µM (≈ 10.5 µg/mL); against Staphylococcus aureus 75, 8 µM (≈ 10.5 µg/mL); against Escherichia coli 804, at least 32 µM. Besides, the MIC was 128 µM (≈ 168 µg/mL) in test [10], 2 µM (≈ 2.63 µg/mL) in test [11] and at least 128 µM in [12].

`CC[C@H](C)[C@H](NC(=O)[C@@H](N)CCCN=C(N)N)C(=O)N[C@@H](CCCCN)C(=O)N[C@H](C(=O)N[C@H](C(=O)N[C@H](C(=O)N[C@@H](CO)C(=O)N[C@@H](Cc1ccccc1)C(=O)N[C@@H](CC(=O)O)C(=O)N[C@@H](CC(C)C)C(=O)N1CCC[C@H]1C(=O)N[C@@H](C)C(=O)N[C@@H](CC(C)C)C(=O)N[C@@H](CCCN=C(N)N)C(=O)N[C@@H](Cc1ccccc1)C(=O)N[C@@H](CC(C)C)C(=O)N[C@@H](CCCCN)C(=O)N[C@@H](CC(C)C)C(=O)O)[C@@H](C)O)C(C)C)[C@@H](C)O` [RIKTVTSFDLPALRFLKL]: the MIC is at least 1000 µM against Bacillus cereus DSM 4222; at least 125 µM in test [13]; at least 1000 µM with Bacillus cereus DSM 4312; at least 500 µM in test [14]; at least 500 µM in test [15]; at least 62.5 µM in test [16]. Besides, the MIC in test [17] is at least 125 µM; in [18], at least 125 µM; in test [19], at least 500 µM; in test [20], at least 1000 µM; in test [21], at least 500 µM; in test [22], at least 500 µM. Also, the minimal inhibitory concentration (MIC) in the test on Listeria monocytogenes is at least 250 µM; in [23], at least 1000 µM; in test [24] it was at least 1000 µM; in [25], 15.6 µM (≈ 33.1 µg/mL).

For `CC[C@H](C)[C@H](NC(=O)[C@H](Cc1ccccc1)NC(=O)[C@H](CO)NC(=O)[C@H](CCCCN)NC(=O)[C@H](Cc1c[nH]c2ccccc12)NC(=O)[C@@H](N)CCCCN)C(=O)N[C@@H](CCCCN)C(=O)N[C@@H](CCCCN)C(=O)N[C@@H](CC(C)C)C(=O)N[C@H](C(=O)N[C@@H](CO)C(=O)N[C@@H](CCCCN)C(=O)N[C@@H](Cc1ccccc1)C(=O)N[C@@H](CC(C)C)C(=O)N[C@@H](Cc1cnc[nH]1)C(=O)N[C@@H](CO)C(=O)N[C@@H](C)C(=O)N[C@@H](CCCCN)C(=O)N[C@@H](CCCCN)C(=O)N[C@@H](Cc1ccccc1)C(N)=O)[C@@H](C)O` [KWKSFIKKLTSKFLHSAKKF], the MIC is 1.27 µM (≈ 3.12 µg/mL) against Pseudomonas aeruginosa; 1.27 µM (≈ 3.12 µg/mL) in [26]; 2.55 µM (≈ 6.25 µg/mL) in test [27]; 1.27 µM (≈ 3.12 µg/mL) in [28]; 2.55 µM (≈ 6.25 µg/mL) in test [29].

With `CC[C@H](C)[C@H](NC(=O)[C@H](CCSC)NC(=O)[C@H](CCCCN)NC(=O)[C@@H](NC(=O)[C@H](C)NC(=O)CNC(=O)[C@H](CCCCN)NC(=O)[C@@H](NC(=O)[C@H](CC(C)C)NC(=O)[C@@H](NC(=O)[C@H](Cc1ccccc1)NC(=O)[C@H](CC(C)C)NC(=O)CN)[C@@H](C)O)[C@@H](C)CC)C(C)C)C(=O)NCC(=O)N[C@@H](CCCCN)C(=O)N[C@H](C(=O)N[C@H](C(=O)N[C@@H](C)C(=O)N[C@@H](CCCCN)C(=O)N[C@@H](CCC(=O)O)C(=O)N[C@@H](C)C(=O)NCC(=O)N[C@@H](CCCCN)C(=O)N[C@H](C(=O)NCC(=O)N[C@@H](CC(C)C)C(=O)N[C@@H](CCC(=O)O)C(=O)N[C@@H](CC(C)C)C(=O)N[C@@H](CCSC)C(=O)N[C@@H](C)C(=O)N[C@H]1CSSC[C@@H](C(=O)O)NC(=O)[C@H](CCC(N)=O)NC(=O)[C@H](CC(N)=O)NC(=O)[C@H]([C@@H](C)O)NC(=O)[C@H](C(C)C)NC(=O)[C@H](CCCCN)NC1=O)[C@@H](C)O)C(C)C)[C@@H](C)O` [GLFTLIKGAVKMIGKTVAKEAGKTGLELMACKVTNQC], the MIC turned out to be 1.1 µM (≈ 4.24 µg/mL) in test [30] and 2.6 µM (≈ 10 µg/mL) in [31].

(Values after DBAASP.)
